Where “and” joins values, the source holds several entries; their conditions need not be identical. Identical values can stand only once.
Experiments:
[1] = tested on: Mouse sperm; details: AMT+UV-treated sperm
Protocol: (§1) Sperm Enucleation. A small piece of fresh Xenopus testis was macerated with forceps, resuspended in 1×MMR containing 1-50 μM AMT, then filtered through a […] cell strainer (Falcon). The sperm suspension was spread onto a Petri dish then irradiated as described above and used immediately to fertilize fresh eggs. Mouse epididymal sperm were isolated in HTF medium (Quinn, 2000) and not filtered before irradiation.
(§2) Eggs from super-ovulated mice were irradiated for 30 seconds with a handheld 4W UV lamp in the presence of 4-6 μM AMT, then parthenogenetically activated with strontium chloride and cultured in vitro for four days. […] In mouse embryos, however, checkpoints are active during the early cleavage divisions (Liu et al., 2000b; Takai et al., 2000).

[2] = tested on: primary MEFs
Protocol: (§3) Feeder Cell Enucleation. […] Cells were irradiated from above for 30-60 seconds with a 4 W UVGL-25 Mineralite (UVP) using the long-wave setting, holding the lamp as close as possible to the brim of the culture dish with the lid removed. After irradiation cells were washed with PBS. H7/WA07 hESCs (National Stem Cell Bank) were plated on primary MEFs 24 hours later. These MEFs were between passages 2 and 5. For keratinocytes precursor cell culture, the MEFS were trypsinized immediately after treatment and plated with CIN612 cells.
Human embryonic stem cells (hESCs) require a feeder layer of mouse embryonic fibroblasts (MEFs) to grow in culture (Thomson et al., 1998). […] The ability of MEFs to support hESC growth declines with time (VIIIa-Diaz et al., 2009).

[3] = tested on: Mouse eggs; details: cultured four days
Protocol: as §2

[4] = tested on: Xenopus eggs; assay: Enucleation of Xenopus eggs with psoralen and long-wave UV light, then fertilization; type: cell-based; details: for Chromosome Number (Mean ± SD): embryos from eggs treated with psoralen + long-wave UV before fertilization, diploid control 36
[5] = tested on: Xenopus sperm
Protocol: as §1
Karyotype Analysis. Karyotype analysis was performed using a modified protocol (http:// followed “by faculty.virginia.edu/xtropicalis/KaryotypeXtropicalis.htm”). […] tailbud embryos were incubated in 0.1×MMR containing 10 μM nocodazole for 1-3 hours. The tailbud was bluntly dissected off with sharp needles, incubated in 60% acetic acid for 5 minutes, and squashed onto a Superfrost Plus microscope slide (V WR Scientific) under a coverslip and a lead brick. After 5 minutes, the slide was quick-frozen on a cake of dry ice, the coverslip was prized off with a razor blade, and the squashed tissue was stained with 0.1 μg/ml 4′,6-diamidino-2-phenylindole (DAPI). At least three high quality spreads were counted before assigning a karyotype.

[6] = tested on: Mouse J2 3T3 fibroblasts; details: 5 μM AMT and UV light 2 minutes
Protocol: as §3
The human keratinocyte precursor cell line CIN612 is widely used in studies of human papillomavirus (HPV) (Ozbun, 2002). CIN612 cells harbor episomal copies of HPV31b, a subtype that causes cervical cancer. The cells are typically grown on a feeder layer of mouse fibroblasts. Mouse J2 3T3 fibroblasts were treated with 5 μM AMT and UV light for 2 minutes, then trypsinized and plated with CIN612 cells.

[7] = tested on: HeLa cells; assay: Effect of psoralen+UV treatment on growth of HeLa cells
[8] = pigmented male sperm treated with AMT and UV, eggs from albino female
[9] = 5 μM MOP, long wave UV 1 minute, cultured three days

**Q.** What does the source list for `Cc1oc2c(C)c3oc(=O)cc(C)c3cc2c1CN` [AMT, 4′-aminomethyl-4, 5′, 8-trimethylpsoralen]?
**A.** Cleavage of fertilized zygotes ([1]; 20-40% with untreated sperm reached blastocyst): rarely cleaved even once; Fertilization of mouse eggs in vitro by treated sperm ([1]; two pronuclei): successfully fertilized mouse eggs in vitro; Comparison of colonies with those on gamma-irradiated MEFs ([2]; 5 μM AMT, long-wave UV 30 seconds): indistinguishable from those grown on gamma-irradiated MEFs; Appearance of hESC colonies on treated MEFs ([2]; 5 μM AMT, long-wave UV 30 seconds, H7/WA07 hESCs after 5 days): healthy-appearing hESC colonies with smooth rounded borders; Time after treatment within which plating maintains hESCs undifferentiated ([2]; AMT+UV-treated MEFs, noticeable decrease after 8 days): ≤ 6 days; Oct3/4 expression of hESCs ([2]; on AMT+UV-treated MEFs): normal amounts; Development of parthenogenetically activated eggs ([3]; 4-6 μM AMT, 30 seconds handheld 4W UV lamp): arrested development at the 1-2 cell stage; Development of eggs treated with AMT only ([3]; AMT without UV): formed complete blastocysts; Average efficiency of enucleation ([4]; 20 different clutches of eggs from different mothers): 87±11%; Embryo development, AMT-only treated eggs ([4]; AMT without UV): normal diploid embryos; DNA content of somatic cells versus cells from untreated eggs ([4]; AMT+UV-treated eggs, primary cultures from pools of 20 tadpoles, flow cytometry): exactly half; Rates of fertilization and development into haploid tadpoles ([4]; after psoralen+UV treatment of eggs): 80-100%; Appearance of tadpoles ([4]; eggs in 50 μM AMT 5 min, irradiated 5 min, 100 W UV 300-400 nm, then fertilized): typical haploid appearance; Outcome with shorter irradiation or lower concentrations ([4]; eggs irradiated for shorter periods or with lower concentrations of AMT): abnormal embryos; Haploid embryos expressing GFP ([4]; eggs of CMV-GFP(+) female treated with AMT and UV, fertilized with GFP(−) sperm, untreated 63%): virtually none; Chromosome Number (Mean ± SD) ([4]; karyotype analysis): 18 and 18.0 ± 0.0; Concentration providing ideal enucleation conditions ([4]; irradiation of eggs for 2-5 minutes): 25 to 50 µM; Chromosome number of most surviving abnormal embryos ([4]; shorter irradiation or lower AMT concentrations, karyotype analysis): 32-34; Embryo outcome when both sperm and egg were treated ([5]; both sperm and egg AMT+UV-treated): underwent several irregular cleavage divisions before dying during the blastula stage; Chromosome Number (Mean ± SD) ([5]; embryos from eggs fertilized with AMT + UV-treated sperm, karyotype analysis): 18 and 18.0 ± 0.0; Appearance of tadpoles [5, 8]: typical haploid appearance; Pigmentation of tadpoles [5, 8]: all were albino; Effect on efficiency of fertilization ([5]; sperm treated with AMT and UV light): no effect; Efficiency of enucleation ([5]; sperm, AMT + UV): 95±3%; Psoralen concentration sufficient to completely destroy the nucleus ([5]; sperm, with UV irradiation): 1 µM; Embryo outcome, AMT without UV exposure ([5]; unless fertilization performed in a darkroom under a safelight): sometimes gave rise to abnormal embryos; Growth rate of CIN612 cells on psoralen-treated feeders [6]: the same as on mitomycin-C treated feeders; CIN612 colonies compared with mitomycin C-treated feeders ([6]; 3-7 days in culture): indistinguishable from those grown on mitomycin C-treated feeder cells

**Q.** For `COc1c2occc2cc2ccc(=O)oc12` [MOP, 8-methoxypsoralen], which Cell viability [7, 9] is on record?
**A.** The Cell viability was 80-100%.

**Q.** What about the HeLa cell growth [7, 9] of the same compound?
**A.** The HeLa cell growth was “effectively arrested HeLa cell growth”.

**Q.** What about the “Chk1 phosphorylation, MOP without UV exposure” value ([7]; MOP without UV) of the same compound?
**A.** The value was “little or no Chk1 phosphorylation”.

**Q.** And the “Growth of cells incubated in MOP without UV exposure” value ([7]; MOP without UV)?
**A.** Its value is “grew normally”.

**Q.** What about the “S345-phosphorylated Chk1” value ([7]; MOP+UV-arrested cells, immunoblotting) of the same compound?
**A.** The value was “high levels”.

**Q.** What about the “Cell cycle distribution (flow cytometry)” value ([7]; MOP+UV-treated cells) of the same compound?
**A.** The value was “arrested in S and G2/M phases of the cell cycle”.

**Q.** What about the Proliferation in culture ([7]; MOP+UV-treated, untreated doubling time close to 24 hours) of the same compound?
**A.** The Proliferation in culture was “did not proliferate”.

**Q.** What about the “Chromosome Number (Mean ± SD)” value ([4]; karyotype analysis) of the same compound?
**A.** The value was 18.0 ± 0.0.

From patent US20120052544A1, “E[…] CELLS WITH PSORALENS” (priority 2010, published 2012)
